Values joined by “and” are separate entries in the source; they are usually repeats but may differ in a detail not shown here. Equal entries are not always repeated.
Assays:
MCP-1 receptor = molecular target: T1, MCP-1 receptor (Homo sapiens, UniProt P41597); experiment: MCP-1 Receptor Binding Assay (I125-labeled MCP-1, THP-1 cell membranes); conditions: THP-1 membranes, 0.2 nM I125-labeled MCP-1
T1 construct: host or cells: THP-1 (human monocytic cell line), membrane preparation
T1 sequence (P41597 1-360 isoform P41597-2): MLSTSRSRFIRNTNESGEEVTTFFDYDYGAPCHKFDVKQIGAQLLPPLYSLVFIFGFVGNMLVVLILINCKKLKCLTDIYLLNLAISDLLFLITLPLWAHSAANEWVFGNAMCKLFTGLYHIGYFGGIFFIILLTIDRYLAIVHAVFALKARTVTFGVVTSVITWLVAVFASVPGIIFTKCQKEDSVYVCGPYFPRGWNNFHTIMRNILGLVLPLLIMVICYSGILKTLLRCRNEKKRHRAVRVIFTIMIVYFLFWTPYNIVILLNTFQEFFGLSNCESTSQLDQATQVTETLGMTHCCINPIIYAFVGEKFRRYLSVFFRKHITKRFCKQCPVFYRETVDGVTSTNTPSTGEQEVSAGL
Description: Membranes used in the MCP-1 binding assay were prepared from THP-1 cells (human monocytic cell line source—American Type Culture Collection, Tumor Immunology Bank #202, Rockville, Md., accession no. ATCC TIB 202). Cells were harvested by centrifugation and washed twice in ice-cold PBS (phosphate-buffered saline) and the cell pellet was frozen at −80° C. in some cases. Cells were resuspended in ice-cold lysis buffer 5 mM HEPES (2-(4N-[2-hydroxyethyl]piperazin-1-yl)-N′-(2-ethanesulfonic acid), pH 7.5, 2 mM EDTA (ethylenediaminetetraacetic acid), 5 μg/mL each leupeptin, aprotinin, chymostatin (protease inhibitors), and 100 μg/mL PMSF (phenylmethane sulfonyl fluoride—also a protease inhibitor)) at a concentration of 5×10^7 cells/mL. The cell suspension was dounced 10-15 times using the B pestle (small pestle of tissue grinder—clearance is 0.07 mm; source—Fisher Scientific) on ice. Nuclei and debris were removed by centrifugation at 500-1000×g for 10 minutes at 4° C. The supernatant was transferred to a fresh tube and centrifuged at 25,000×g for 30 minutes at 4° C. The supernatant was aspirated and the pellet was resuspended in freezing buffer (10 mM HEPES, pH 7.5, 300 mM sucrose, 1 μg/mL each leupeptin, aprotinin, chymostatin, and 10 μg/mL PMSF) using a minihomogenizer until all clumps were resolved. Membranes were aliquoted and frozen at minus 70-85° C. until needed. Typical binding assays used 10-20 μg/well of total membrane protein as determined with a standard protein assay (e.g. Bradford protein assay, BioRad, Richmond, Calif.).
For binding, 10-20 μg of total membrane protein were included in the binding reaction along with 0.2 nM I^125-labeled MCP-1 (Amersham, Arlington Heights, Ill.) with or without unlabeled competitor MCP-1 (Peprotech, Rocky Hill, N.J.) (at 500 nM). Binding reactions were performed in a final volume of 100 μl in a binding buffer containing 10 mM HEPES, pH 7.2, 1 mM CaCl2, 5 mM MgCl2, 0.5% BSA (bovine serum albumin). After 30-60 minutes at room temperature, the binding reactions were filtered through GF/C filters (Whatman glass fiber filters, Type C) or GF/B unifilter plates (Packard) which had been pre-soaked with 0.3% polyethyleneimine and washed twice with binding buffer containing 0.5 M NaCl. Filters were dried and counted in a Beta-Plate scintillation counter using standard scintillation fluid. Final concentration of compound in the binding assay ranged from 0.05-100 μM. Compounds were dissolved in DMSO (dimethyl sulfoxide). Final concentrations of DMSO in the binding were kept constant at 0.5%.
IC50s were calculated using a non-linear 3-parameter logistic curve fit. IC50 means the concentration at which 50% inhibition is achieved. Negative controls contained the same amount of DMSO vehicle as used in wells containing compound. Positive control contained 250-500 nM cold competitor MCP-1 in DMSO vehicle. Non-specific binding (the level of bound ^125I-labeled MCP-1 in the presence of […] unlabeled MCP-1) was subtracted from all data prior to analysis.

[1] = system: T lymphocyte blast cells (CD3-Blasts); experiment: CD3-Blast Chemotaxis Assay (transendothelial migration to MCP-1); format: cell-based, human; conditions: 10 μM compound; MCP-1 about 10 nM; ECV304 endothelial coated Transwells
Text: Recombinant human MCP-1 was obtained from Peprotech (Rockey Hill, N.J.). T lymphocyte blast cells (CD3-Blasts) were generated by standard protocols (Coligan, J. E., A. M. Kruisbeek, D. H. Macgulies, E. M. Shevach, and W. Strober, editors. 1992. Current Protocols in Immunology. John Wiley and Sons, New York 7.1.2, 7.10.1-7.10. 10). Briefly, human peripheral blood mononuclear cells (PBMC) were isolated from heparinized venous blood by Percoll density gradient centrifugation (d=1.088) at room temperature. RBCs were removed by hypotonic lysis or dextran sedimentation. Blast cells were generated by incubating 2×10^6 PBMC in 24-well tissue culture plates that were coated with 2.5 μg of an anti-CD3 monoclonal antibody (identified as TR66, a gift from Dr. A. Lanzivecchia; similar monoclonal antibody is HIT3a, from Parmingen #30111A) at 37° C. for 48 to 72 hours, and then transferring 12 wells to T25 or T75 flasks with RPMI (Roswell Park Memorial Institute 1640, a growth cell medium available from Gibco/RBL, Inc., New York)+10% FCS (fetal calf serum)+50 units/ml IL-2. The cells are expanded and cultured for up to 3 weeks. CD3-Blast chemotaxis was assessed no sooner than 3 to 4 days after transfer to the IL-2 containing medium using a modification of a transendothelial migration assay (Carr. M. W., S. J. Roth, B. Luther, S. S. Rose, and T. A. Springer. 1994. Monocyte chemoattractant protein 1 acts as a T-lymphocyte chemoattractant. Proc. Natl. Acad. Sci. USA 91:3652-6). The endothelial cells used for this assay were the endothelial cell line ECV304. (ECV304 was from the European Collection of Animal Cell Cultures, Porton Downs, UK, assession #92091712). Endothelial cells were cultured on 6.5 mm diameter Transwell culture inserts (Costar) with a […] pore size. […] Background migration was determined by counting cells that migrated in the absence of MCP-1 in the lower chamber. […] The percent inhibition by compounds of directed migration was determined by the following formula: [drawing 32] […]

| Compound | IC50 (MCP-1 receptor) [µM] | also measured |
| --- | --- | --- |
| COc1ccc2nc(-c3ccc(N(C)CCN4CCCCC4)cc3)[nH]c2c1.Cl.Cl |  | melting point: 273 °C |
| CN(CCN1CCCCC1)c1ccc(-c2nc3ccc(C(F)(F)F)cc3[nH]2)cc1 | 15.5 |  |
| CN(CCN1CCCCC1)c1ccc(-c2nc3ccc(F)cc3[nH]2)cc1 | 8.6 |  |
| CN(CCN1CCCCC1)c1ccc(-c2nc3cc(Sc4ccc(Cl)c(Cl)c4)ccc3[nH]2)cc1 | 5.1 |  |
| c1ccc(-c2ccc3nc(-c4ccc(NCCN5CCCCC5)cc4)[nH]c3c2)cc1 | 11.9 |  |
| CN(CCN1CCCCC1)Cc1ccc(-c2nc3cc(Cl)c(Cl)cc3[nH]2)cc1 | 3.2 |  |
| CN(CCN1CCCCC1)c1ccc(-c2nc3ccc(NCCCCCc4ccccc4)cc3[nH]2)cc1 | 6.7 |  |
| CN(CCN1CCCCC1)c1ccc(-c2cc3cc(Cl)ccc3[nH]2)cc1 | 9.9 |  |
| CN(CCN1CCCCC1)c1ccc(-c2nc3ccc(Cc4ccccc4)cc3[nH]2)cc1 | 4.3 |  |
| CN(CCN1CCCCC1)c1ccc(-c2nc3cc(Cl)c(Cl)cc3[nH]2)cc1 [Example 2, N-[4-(5 ,6-dichloro-1H-benzimidazol-2-yl)-phenyl]-N-methyl-N-(2-piperidin-1-yl-ethyl)-amine] |  | % Inhibition of Chemotaxis at 10 μM [1]: 100% and 102%; melting point: 165 to 167 °C |
| CN(CCN1CCCCC1)c1ccc(-c2nc3ccc(Cl)cc3[nH]2)cc1 [Example 4, [4-[6-Chloro-1H-benzoimidazol-2-yl)-phenyl]-methyl-(2-piperidin-1-yl-ethyl)-amine] |  | melting point: 196 °C |
| CN(CCN1CCCCC1)c1ccc(-c2nc3cc(Cl)c(F)cc3[nH]2)cc1 [Example 5, [4-(5-Chloro-6-fluoro-1H-benzoimidazol-2-yl)-phenyl]-methyl-(2-piperidin-1-yl-ethyl)-amine] |  | melting point: 167 to 168 °C |
| Cc1ccc2nc(-c3ccc(N(C)CCN4CCCCC4)cc3)[nH]c2c1 [Example 6, Methyl-[4-(6-methyl-1H-benzoimidazol-2-yl)-phenyl]-(2-piperidin-1-yl-ethyl)-amine] |  | melting point: 165 °C |
| Cc1cc2nc(-c3ccc(N(C)CCN4CCCCC4)cc3)[nH]c2cc1C [Example 7, [4-(5,6-Dimethyl-1H-benzoimidazol-2-yl)-phenyl]-methyl-(2-piperidin-1-yl-ethyl)-amine] |  | melting point: 194 to 196 °C |
| CN(CCN1CCCCC1)c1ccc(-c2nc3ccc(Cl)c(Cl)c3[nH]2)cc1 [Example 8, [4-(6,7-Dichloro-1H-benzoimidazol-2-yl)-phenyl]-methyl-(2-piperidin-1-yl-ethyl)-amine] |  | melting point: 164 °C |
| CN(CCN1CCCCC1)c1ccc(C2=Nc3ccc(Cl)cc3C2)cc1 [Example 10, [4-(5-Chloro-3H-indol-2-yl)-phenyl]-methyl-(2-piperidin-1-yl-ethyl)-amine] |  | melting point: 192 °C |
| CCN(CC)CCN(CCN(CC)CC)c1ccc(-c2nc3cc(Cl)c(Cl)cc3[nH]2)cc1 [drawing 8] | 11.1 |  |
| CN(CCN1CCCCC1)c1ccc(-c2nc3cc(Cl)c(Cl)cc3[nH]2)cc1 [drawing 9] | 13.4 |  |
| Cc1ccc2nc(-c3ccc(N(C)CCN4CCCCC4)cc3)[nH]c2c1 [drawing 13] | 8.7 |  |
| N-[4-(5,6-dichloro-1H-benzimidazol-2-yl)-phenyl]-N-(2-diethylaminoethyl)-N-methyl, N-diethyl-ethane-1,2-diamine [Example 3] |  | % Inhibition of Chemotaxis at 10 μM [1]: 95% and 102% |

Second part, led by results:

| IC50 (MCP-1 receptor) [µM] | Compound | also measured |
| --- | --- | --- |
| 10.9 | CN(CCN1CCCCC1)c1ccc(-c2nc3ccccc3[nH]2)cc1 |  |
| 3.1 | CN(CCN1CCCCC1)c1ccc(-c2nc3ccc(C(C)(C)C)cc3[nH]2)cc1 |  |
| 12.1 | CN(CCN1CCCCC1)c1ccc(-c2nc3cc4ccccc4cc3[nH]2)cc1 |  |
| 20.7 | CN(CCN1CCCCC1)c1ccc(-c2nc3cc4c(cc3[nH]2)Cc2ccccc2-4)cc1 |  |
| 11.5 | CCCCc1ccc2nc(-c3ccc(N(C)CCN4CCCCC4)cc3)[nH]c2c1 |  |
| 15.1 | CN(CCN1CCCCC1)c1ccc(-c2nc3ccc(-c4ccccc4)cc3[nH]2)cc1 |  |
| 11.3 | CN(CCN1CCCCC1)c1ccc(-c2nc3ccc(C(=O)c4ccccc4)cc3[nH]2)cc1 |  |
| 15.4 | CN(CCN1CCCCC1)c1ccc(-c2nc3ccc(OCc4ccccc4)cc3[nH]2)cc1 |  |
| 6.4 | CN(CCN1CCCCC1)c1ccc(-c2nc3ccc(Oc4ccc(Cl)c(Cl)c4)cc3[nH]2)cc1 |  |
| 6.8 | CCN(CC)CCN(C)c1ccc(-c2nc3cc(Cl)c(Cl)cc3[nH]2)cc1 |  |
| 5.9 | CN(CCN1CCCCC1)c1ccc(-c2nc3ccc(Cl)cc3[nH]2)cc1 [drawing 11] |  |
| 9.6 | CN(CCN1CCCCC1)c1ccc(-c2nc3cc(Cl)c(F)cc3[nH]2)cc1 [drawing 12] |  |
| 6.3 | Cc1cc2nc(-c3ccc(N(C)CCN4CCCCC4)cc3)[nH]c2cc1C [drawing 14] |  |
